Counter-ions that a name gives are not always drawn.
Target: T1, human H1 receptor (Homo sapiens, UniProt P35367)
T1 construct: purchased Euroscreen SA, Brussels, Belgium ES-390-M; host or cells: CHO-K1
Experiment: Histamine H1 receptor binding, competition displacement of [3H]-pyrilamine
Conditions: competition displacement of 1 nM [3H]-pyrlamine; 2 μg membranes from recombinant CHO-K1 cells expressing the human H1 receptor; 1 hour at room temperature; read-out: H1 pKi (converted)

T1 sequence (P35367 whole entry): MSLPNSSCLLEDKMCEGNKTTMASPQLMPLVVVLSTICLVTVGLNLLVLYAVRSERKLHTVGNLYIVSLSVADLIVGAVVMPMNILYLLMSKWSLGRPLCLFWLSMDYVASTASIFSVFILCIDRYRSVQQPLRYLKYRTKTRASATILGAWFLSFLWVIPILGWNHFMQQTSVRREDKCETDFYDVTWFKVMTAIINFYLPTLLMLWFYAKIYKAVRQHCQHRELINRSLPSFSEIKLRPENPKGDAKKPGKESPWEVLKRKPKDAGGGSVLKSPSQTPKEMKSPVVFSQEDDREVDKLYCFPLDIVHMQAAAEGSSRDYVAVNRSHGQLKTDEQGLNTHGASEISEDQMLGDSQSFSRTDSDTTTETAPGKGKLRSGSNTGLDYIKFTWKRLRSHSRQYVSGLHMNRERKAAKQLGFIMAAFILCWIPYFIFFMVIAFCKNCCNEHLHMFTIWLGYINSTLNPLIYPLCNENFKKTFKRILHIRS

| Compound | Ki [nM] |
| --- | --- |
| Cc1c(OC2CCN(CC3CCN([C@@H](Cc4ccccc4C#N)C(=O)O)CC3)CC2)ccc(Cl)c1Cl [Example 56, (αS)-α-[(2-Cyanophenyl)methyl]-4-[[4-(3,4-dichloro-2-methylphenoxy)-1-piperidinyl]methyl]-1-piperidineacetic acid] | 12.6 |
| Cc1c(Cl)ccc(OC2CCN(CC3CCN([C@@H](Cc4ccccc4)C(=O)O)CC3)CC2)c1Cl [Example 37, (αS)4-[[4-(2,4Dichloro-3-methylphenoxy)-1-piperidinyl]methyl]-α-(phenylmethyl)-1-piperidineacetic acid] | 31.6 |
| O=C(O)[C@H](CCc1ccccc1)N1CCC(CN2CCC(Oc3ccc(Cl)c(Cl)c3)CC2)CC1 [Example 66, (αS)-4-[[4-(3,4-Dichlorophenoxy)-1-piperidinyl]methyl]-α-(2-phenylethyl)-1-piperidineacetic acid] | 63.1 |
| Cc1c(OC2CCN(CC3CCN([C@@H](Cc4cccc(C#N)c4)C(=O)O)CC3)CC2)ccc(Cl)c1Cl [Example 57, (αS)-α-[(3-Cyanophenyl)methyl]-4-[[4-(3,4-dichloro-2-methylphenoxy)-1-piperidinyl]methyl]-1-piperidineacetic acid] | 20 |
| O=C(O)[C@H](Cc1cccnc1)N1CCC(CN2CCC(Oc3ccc(Cl)c(Cl)c3)CC2)CC1 [Example 42, (αS)-α-[4-[[4-(3,4-Dichlorophenoxy)-1-piperidinyl]methyl]-1-piperidinyl]-3-pyridinepropanoic acid] | 50.1 |
| C[C@@H](c1ccccc1)[C@@H](C(=O)O)N1CCC(CN2CCC(Oc3ccc(Cl)c(Cl)c3)CC2)CC1 [Example 59, (αS)-4-[[4-(3,4-Dichlorophenoxy)-1-piperidinyl]methyl]-α-[(1S)-1-phenylethyl]-1-piperidineacetic acid] | 63.1 |
| Cn1cncc1C[C@@H](C(=O)O)N1CCC(CN2CCC(Oc3ccc(Cl)c(Cl)c3)CC2)CC1 [Example 81, (αS)-4-[[4-(3,4-Dichlorophenoxy)-1-piperidinyl]methyl]-α-[(1-methyl-1H-imidazol-5-yl)methyl]-1-piperidineacetic acid] | 398 |
| O=C(O)[C@H]([C@H](O)c1ccccc1)N1CCC(CN2CCC(Oc3ccc(Cl)c(Cl)c3)CC2)CC1 [Example 58, (αS)-4-[[4-(3,4-Dichlorophenoxy)-1-piperidinyl]methyl]-α-[(R)-hydroxyphenylmethyl]-1-piperidineacetic acid] | 126 |
| O=C(O)[C@H](Cc1cccs1)N1CCC(CN2CCC(Oc3ccc(Cl)c(Cl)c3)CC2)CC1 [Example 80, (αS)-4-[[4-(3,4Dichlorophenoxy)-1-piperidinyl]methyl]-α-(2-thienylmethyl)-1-piperidineacetic acid] | 251 |
| O=C(O)[C@H](CCc1ccccc1)N1CCC(CN2CCC(Oc3ccc(Cl)c(Cl)c3)CC2)CC1 [Example 78, (αS)-4-[[4-(3,4-Dichlorophenoxy)-1-piperidinyl]methyl]-α-(2-phenylethyl)-1-piperidineacetic acid dihydrochloride] | 126 |
| Cc1c(Cl)ccc(OC2CCN(CC3CCN([C@@H](Cc4ccccc4)C(=O)O)CC3)CC2)c1Cl [Example 71, (αS)-4-[[4-(2,4-Dichloro-3-methylphenoxy-1-piperidinyl]methyl]-α-(phenylmethyl)-1-piperidineacetic acid, dihydrochloride salt] | 158 |
